According to ChEMBL document CHEMBL1275260, “N-acetylcysteine-mediated modulation of bacterial antibiotic susceptibility” (2010):
≈ marks a conversion by molar mass, not a printed value. Calls of active or inactive are those of the source. The rule behind the calls is not given here.

What was measured:
Klebsiella pneumoniae = test: Antibacterial activity against Klebsiella pneumoniae NCIM 2883 assessed as growth inhibition in presence of 10 mM N-Acetylcysteine; type: functional, organism-based
Escherichia coli [1] = test: Antibacterial activity against Escherichia coli MG1655 in presence of 10 mM N-Acetylcysteine; type: functional
Pseudomonas aeruginosa [2] = test: Antibacterial activity against Pseudomonas aeruginosa NCIM 5029 in presence of 10 mM N-Acetylcysteine; type: functional
Escherichia coli [3] = test: Antibacterial activity against Escherichia coli DH5alpha in presence of 10 mM N-Acetylcysteine; type: functional; conditions: DH5[alpha]
Escherichia coli [4] = test: Antibacterial activity against Escherichia coli W3110; type: functional; conditions: K-12 substr. W3110
Klebsiella aerogenes [5] = test: Antibacterial activity against Klebsiella aerogenes NCIM 2281; type: functional
Escherichia coli [6] = test: Antibacterial activity against Escherichia coli DH5alpha; type: functional; conditions: DH5[alpha]
Pseudomonas aeruginosa [7] = test: Antibacterial activity against Pseudomonas aeruginosa NCIM 5029; type: functional
Escherichia coli [8] = test: Antibacterial activity against Escherichia coli MG1655; type: functional
Klebsiella aerogenes [9] = test: Antibacterial activity against Klebsiella aerogenes NCIM 2281 in presence of 10 mM N-Acetylcysteine; type: functional
Escherichia coli [10] = test: Antibacterial activity against Escherichia coli W3110 in presence of 10 mM N-Acetylcysteine; type: functional; conditions: K-12 substr. W3110

| Structure (SMILES) | Activity (Klebsiella pneumoniae) | MIC (Escherichia coli [1]) | MIC (Pseudomonas aeruginosa [2]) | MIC (Escherichia coli [3]) | MIC (Escherichia coli [4]) | MIC (Klebsiella aerogenes [5]) | MIC (Escherichia coli [6]) | MIC (Pseudomonas aeruginosa [7]) | MIC (Escherichia coli [8]) | MIC (Klebsiella aerogenes [9]) | MIC (Escherichia coli [10]) |
| --- | --- | --- | --- | --- | --- | --- | --- | --- | --- | --- | --- |
| CC1(C)S[C@@H]2[C@H](NC(=O)[C@H](N)c3ccccc3)C(=O)N2[C@H]1C(=O)O [AMPICILLIN] | Active | 1 µg/mL | 128 µg/mL | 4 µg/mL | 8 µg/mL (≈ 22.9 µM) | 32 µg/mL (≈ 91.6 µM) | 4 µg/mL (≈ 11.4 µM) | 1020 µg/mL (≈ 2930 µM) | 4 µg/mL (≈ 11.4 µM) | 32 µg/mL | – |
| O=C(N[C@H](CO)[C@H](O)c1ccc([N+](=O)[O-])cc1)C(Cl)Cl [CHLORAMPHENICOL] | Active | 4 µg/mL | 128 µg/mL | 2 µg/mL | 1 µg/mL (≈ 3.09 µM) | 1 µg/mL (≈ 3.09 µM) | 2 µg/mL (≈ 6.19 µM) | 128 µg/mL (≈ 396 µM) | 4 µg/mL (≈ 12.4 µM) | 1 µg/mL | 1 µg/mL |
| O=C(O)c1cn(C2CC2)c2cc(N3CCNCC3)c(F)cc2c1=O [CIPROFLOXACIN] | Active | 0.512 µg/mL | 2.05 µg/mL | – | – | 0.016 µg/mL (≈ 0.0483 µM) | – | 1.02 µg/mL (≈ 3.09 µM) | – | 0.512 µg/mL | 0.064 µg/mL |
| CC[C@H]1OC(=O)[C@H](C)[C@@H](O[C@H]2C[C@@](C)(OC)[C@@H](O)[C@H](C)O2)[C@H](C)[C@@H](O[C@@H]2O[C@H](C)C[C@H](N(C)C)[C@H]2O)[C@](C)(O)C[C@@H](C)C(=O)[C@H](C)[C@@H](O)[C@]1(C)O [ERYTHROMYCIN] | Active | 1020 µg/mL | 1020 µg/mL | 16 µg/mL | 4 µg/mL (≈ 5.45 µM) | 32 µg/mL (≈ 43.6 µM) | 16 µg/mL (≈ 21.8 µM) | 256 µg/mL (≈ 349 µM) | 32 µg/mL (≈ 43.6 µM) | 1020 µg/mL | 512 µg/mL |
| NC[C@H]1O[C@H](O[C@H]2[C@H](O)[C@@H](O[C@H]3O[C@H](CO)[C@@H](O)[C@H](N)[C@H]3O)[C@H](N)C[C@@H]2N)[C@H](O)[C@@H](O)[C@@H]1O [KANAMYCIN] | Active | 32 µg/mL | 256 µg/mL | 0.5 µg/mL | 1 µg/mL (≈ 2.06 µM) | 1 µg/mL (≈ 2.06 µM) | 0.5 µg/mL (≈ 1.03 µM) | 64 µg/mL (≈ 132 µM) | 1 µg/mL (≈ 2.06 µM) | 16 µg/mL | 16 µg/mL |
| CC1COc2c(N3CCN(C)CC3)c(F)cc3c(=O)c(C(=O)O)cn1c23 (stereo not given) [OFLOXACIN] | Active | 1.02 µg/mL | 2.05 µg/mL | – | – | 0.064 µg/mL (≈ 0.177 µM) | – | 0.256 µg/mL (≈ 0.708 µM) | 0.032 µg/mL (≈ 0.0886 µM) | 0.512 µg/mL | 0.032 µg/mL |
| CC1(C)S[C@@H]2[C@H](NC(=O)Cc3ccccc3)C(=O)N2[C@H]1C(=O)O [PENICILLIN G] | Active | 64 µg/mL | 2050 µg/mL | – | 64 µg/mL (≈ 191 µM) | 64 µg/mL (≈ 191 µM) | – | > 4100 µg/mL | 64 µg/mL (≈ 191 µM) | 64 µg/mL | 64 µg/mL |
| CN[C@@H]1[C@H](O)[C@H](NC)[C@H]2O[C@@]3(O)C(=O)C[C@@H](C)O[C@H]3O[C@@H]2[C@H]1O [SPECTINOMYCIN] | Active | 256 µg/mL | 512 µg/mL | 4 µg/mL | 6 µg/mL (≈ 18.1 µM) | 8 µg/mL (≈ 24.1 µM) | 4 µg/mL (≈ 12 µM) | 256 µg/mL (≈ 770 µM) | 8 µg/mL (≈ 24.1 µM) | 128 µg/mL | 128 µg/mL |
| CN[C@@H]1[C@H](O[C@H]2[C@H](O[C@H]3[C@H](O)[C@@H](O)[C@H](N=C(N)N)[C@@H](O)[C@@H]3N=C(N)N)O[C@@H](C)[C@]2(O)C=O)O[C@@H](CO)[C@H](O)[C@H]1O [STREPTOMYCIN] | Active | 32 µg/mL | 64 µg/mL | 1 µg/mL | 2 µg/mL (≈ 3.44 µM) | 2 µg/mL (≈ 3.44 µM) | 1 µg/mL (≈ 1.72 µM) | 8 µg/mL (≈ 13.8 µM) | 2 µg/mL (≈ 3.44 µM) | 16 µg/mL | 16 µg/mL |
| CN(C)[C@@H]1C(O)=C(C(N)=O)C(=O)[C@@]2(O)C(O)=C3C(=O)c4c(O)cccc4[C@@](C)(O)[C@H]3C[C@@H]12 [TETRACYCLINE] | Active | 1 µg/mL | 8 µg/mL | 1 µg/mL | 0.062 µg/mL (≈ 0.14 µM) | 1 µg/mL (≈ 2.25 µM) | 1 µg/mL (≈ 2.25 µM) | 8 µg/mL (≈ 18 µM) | 1 µg/mL (≈ 2.25 µM) | 1 µg/mL | 0.062 µg/mL |
